Results published in PubChem BioAssay AID1223 (NMMLSC, 2008).
The source made the active and inactive calls.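 The calls were made as follows: active = total score of at least 50 of 100, built from tracer displacement at 10 µM, potency and curve span; inactive = total score under 50.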

Molecular target: Estrogen receptor (Homo sapiens) (UniProt P03372)
Assay: fluorescent estrogen displacement from ERalpha – cell-based, Cos7 ERalpha-GFP, flow cytometry, dose response (AID 1223)
Conditions: E2-Alexa633 competitive binding

Chain of Estrogen receptor (Homo sapiens) (P03372 whole entry, looked up): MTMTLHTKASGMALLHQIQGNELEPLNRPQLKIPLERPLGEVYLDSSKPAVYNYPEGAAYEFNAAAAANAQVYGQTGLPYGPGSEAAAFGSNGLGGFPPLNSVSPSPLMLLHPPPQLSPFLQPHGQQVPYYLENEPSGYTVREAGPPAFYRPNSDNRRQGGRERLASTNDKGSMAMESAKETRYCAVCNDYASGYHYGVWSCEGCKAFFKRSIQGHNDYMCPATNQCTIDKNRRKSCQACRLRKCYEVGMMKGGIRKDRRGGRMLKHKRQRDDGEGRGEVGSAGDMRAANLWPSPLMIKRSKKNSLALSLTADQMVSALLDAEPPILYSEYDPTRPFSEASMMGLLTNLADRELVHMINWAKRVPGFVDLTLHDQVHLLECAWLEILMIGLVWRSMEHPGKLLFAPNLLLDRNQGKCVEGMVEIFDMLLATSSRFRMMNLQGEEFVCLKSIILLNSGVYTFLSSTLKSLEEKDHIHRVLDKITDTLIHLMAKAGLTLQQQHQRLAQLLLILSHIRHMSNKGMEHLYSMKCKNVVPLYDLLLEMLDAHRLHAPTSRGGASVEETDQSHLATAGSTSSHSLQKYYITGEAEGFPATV

Row | SMILES | fluorescent ligand binding remaining (at 10 µM (top of the series)) | also measured
1 | Cc1cc(-c2nn3c(-c4ccccc4)nnc3s2)c2ccccc2n1 | inactive | –
2 | CC(=O)c1ccc2c(c1)C1C=CCC1C(c1ccc(S(=O)(=O)N3CCOCC3)cc1)N2 (stereo unspecified) | inactive | –
3 | Nc1ccc(-c2nc3ccc([N+](=O)[O-])cc3[nH]2)cc1 | 63.9% | –
4 | CCC(=O)Oc1ccc(C(CC)C(CC)c2ccc(OC(=O)CC)cc2)cc1 (stereo unspecified) | 19.9% | –
5 | COc1cccc(C2Nc3c(F)cc(Br)cc3C3C=CCC32)c1OC (stereo unspecified) | inactive | –
6 | CCCCCCNC(=O)c1cc(-c2ccco2)nc2ccccc12 | inactive | –
7 | Cc1cc(C)c2c(c1)NC(c1cc3c(cc1Br)OCO3)C1CC=CC21 (stereo unspecified) | inactive | –
8 | Oc1ccc(-c2nc(-c3ccc(O)c(O)c3)cs2)cc1 | inactive | –
9 | Cc1oc2cc(O)ccc2c(=O)c1Oc1ccccc1 | 42% | –
10 | CCc1ccc(-c2nn(-c3ccccc3)cc2CSC(=N)N)cc1 | inactive | –
11 | O=C(O)c1ccc([N+](=O)[O-])c2c1NC(c1ccccc1)C1CC=CC21 (stereo unspecified) | – | fluorescent ligand binding remaining (at 100 µM (top of the series)): inactive
12 | Cc1ccc(C(=O)N/N=C/c2ccc([N+](=O)[O-])s2)cc1 | inactive | –
13 | Nc1ncnc2c1ncn2C1CCC(CO)C(O)C1 (stereo unspecified) | inactive | –
14 | Cc1ccc(-n2c(=O)c(C#N)cc3c(=O)n4cccc(C)c4nc32)cc1 | inactive | –
15 | Cc1nn(-c2ccccc2)c(/N=C/c2ccc(O)cc2)c1-c1ccccc1 | inactive | –
16 | O=C(Cc1cccs1)Nc1ccc(S(=O)(=O)Nc2ncccn2)cc1 | inactive | –
17 | COc1ccc(/C=N/NC(=O)c2nc(-c3ccccc3)cc(-c3ccccc3)n2)cc1O | 44.4% | –
18 | Cc1cc([N+](=O)[O-])c2c(c1C)C1C=CCC1C(c1ccccn1)N2 (stereo unspecified) | 27.9% | –

Row | SMILES | fluorescent ligand binding remaining (at 10 µM (top of the series)) | also measured
19 | CC(=O)Nc1ccc(OC(=O)CC2SC(=O)NC2=O)cc1 (stereo unspecified) | inactive | –
20 | C[C@]12CC[C@@H]3c4ccc(O)cc4C(=O)C[C@H]3[C@@H]1CC[C@@H]2O | inactive | –
21 | CCNC(=O)c1ccc2c(c1)C1C3CCC(C3)C1C(c1ccccc1)N2 (stereo unspecified) | inactive | –
22 | Oc1ccc(-c2nc3ccc4ccccc4c3c3c2CCC3)cc1O | inactive | –
23 | C/C=C(/C(=C/C)c1ccc(O)cc1)c1ccc(O)cc1 | inactive | –
24 | O=C1NC(c2ccc(Br)cc2)Nc2sc3c(c21)CCC3 (stereo unspecified) | inactive | –
25 | N=C1C(c2nc3ccccc3[nH]2)=C(O)CN1c1ccc(CC(=O)O)cc1 | inactive | –
26 | O=C1/C(=C\c2ccco2)SC(=S)N1c1ccc(O)cc1 | inactive | –
27 | CCc1nc2sc3ccccc3c(=O)c2c(=O)n1Cc1ccco1 | inactive | –
28 | O=C(O)c1ccc2c(c1)C1C(Cl)C(Sc3ccccc3[N+](=O)[O-])CC1C(c1cccc([N+](=O)[O-])c1)N2 (stereo unspecified) | inactive | –
29 | CCn1nnc(NC(=O)CSc2ccc(Cl)cc2)n1 | 68.5% | –
30 | O=S(=O)(NCCc1csc(-c2cccnc2)n1)c1ccc(Cl)s1 | inactive | –
31 | CCC(=O)Oc1ccc(/C(CC)=C(\CC)c2ccc(OC(=O)CC)cc2)cc1 | 22.8% | –
32 | COc1ccc(NC(=O)C(c2ccccc2)N(C)C(=O)c2ccc(=O)[nH]c2)cc1 (stereo unspecified) | 50.7% | –
33 | CCn1c(=NC(=O)c2ccc(N3C(=O)CCC3=O)cc2)sc2c(OC)ccc(OC)c21 | – | EC50: > 10 µM (inactive)
34 | CCCCOC(=O)c1c(C)oc2ccc(NS(=O)(=O)c3ccc4c5c(cccc35)C(=O)N4)cc12 | inactive | –
35 | O=C(c1cc2ncc(Br)cn2n1)N1CCN(C(=O)c2ccco2)CC1 | inactive | –
36 | C[C@H]1CCC[C@@H](O)CCC/C=C/c2cc(O)cc(O)c2C(=O)O1 | inactive | –
